Where two headings read alike, the source gives them in different places. One block for each compound: values may come before it.
How the values were obtained:
[1] = tested on: HP1-mediated heterochromatin gene repression at the CiA:Oct4 locus; assay: HP1-recruitment assay (CiA:Oct4), % GFP (+) cells by flow cytometry; format: cell-based, mouse; details: 48 h, CIP-rapamycin HP1 recruitment
Description: To elucidate the effect of DFP-based KDM inhibitors have on chromatin dynamics, we profiled them in an intracellular assay which measures heterochromatin formation speed. The chromatin assay (CiA) leverages chemical induced proximity (CTP) to recruit heterochromatin protein 1 (HP1) to a modified Oct4 locus. This reporter system inserts tandem arrays of Gal4 and zinc finger DNA binding domains in the promoter of one allele of Oct4, where the gene is replaced by a nuclear eGFP reporter. Protein fusions of Gal4-FKBP and FRRB—HP1 allow for direct chemical recruitment of HP1 to the CiA:Oct4 reporter locus upon addition of the chemical inducer of proximity (CIP)-rapamycin. After CIP-rapamycin addition, HIP1 is recruited to the reporter locus and brings histone methyltransferase enzymes to the chromatin reporter resulting in the repressive H3K9me3 mark being deposited. H3K9me3 deposition leads to heterochromatin formation and gene silencing (FIG. 7A). Others have shown that H3K4me3 marked nucleosomes impede H3K9 methyltransferases. Thus, we postulate that the active H3K4me3 mark mast be removed by KDM enzymes as part of the transformation from euchromatin to heterochromatin. Inhibition of KDMs, specifically those targeting H3K4me3, would result in a decrease in H3K9me3 accumulation, which would be measured in our assay as an increase in % GFP (+) cells.
To determine the effect of DFP-based KDM inhibitors on HP1-mediated gene repression, we treated CiA:Oct4 embryonic stem (ES) cells with doses of representative compounds ranging from […] for 48 h with and without CIP-rapamycin recruiting HP1 (FIG. 7B). […] Dose response curves of DFP derivatives abler 48 h with C) and without D) HP1 recruitment at 10000, 5000, 2500, 1000, 500, 250, and 0 nM concentrations. Flow cytometry was used to determine the % GFP (+) cells following treatment. n=6
The CiA:Oct4 recruitment system in mouse embryonic stem cells contains Gal4 and Zinc finger DNA binding arrays and a downstream nuclear eGFP gene in place of a single Oct4 allele as previously described. The CiA:Oct4 N118/N163 cell line containing viral integrations of N118 and N163 plasmids (N118-nLV EF-1α-Gal-FKBPx1-HA-PGK-Blast, N163-nLV EF-1α-HP1α (CS)-Frbx2(Frb+FrbWobb)-V5-PGK-Puro) was used for inhibition of HP1-mediated heterochromatin studies. All plasmids are freely available on addgene.
Day 0, CiA:Oct4 N118/163 cells were grown in ES media and seeded at a density of 10,000 cells per well (100.000 cells/ml) into gelatin coated 96 well plates. Day 1, culture media was aspirated and replaced with 100 μl ES media containing +/−6 nM rapamycin. 10 μM, 5 μM, 2.5 μM, 1 μM, 500 nM, and 250 nM concentrations of compound or DMSO were added using a TTP Labtech Mosquito HTS liquid handler. Days 2-4. fresh ES media+/−rapamycin and compound were added as in Day 1.
Day 3 and 5, cells were washed with PBS and trypsinized using 0.25% trypsin-EDTA. Trypsin was quenched with serum. Cells were resuspended by pipetting in preparation for flow cytometry analysis.
Flow cytometry data was acquired using the Intellicyt iQue Screener and analyzed with FlowJo software. Cell populations were gated based on forward and side scatter height. Single cell populations were gated using forward scatter area by forward scatter height. Autofluorescent cells were excluded and the remaining cells were gated into GFP (−) and GFP (+) populations based on DMSO control samples.

[2] = molecular target: T1, KDM6A (UTX) (Homo sapiens, UniProt O15550); assay: biochemical; details: for inhibition at 1 µM: read-out: KDM6A (UTX) Inhibition (%) 1 (μM); for inhibition at 10 µM: read-out: KDM6A (UTX) Inhibition (%) 10 (μM)
[3] = tested on: MDA-MB-231 (TNBC BCa); assay: Cell viability assay (MTS), MDA-MB-231; format: cell-based; details: NI = no inhibition, read-out: Antiproliferative Activity IC50 (μM) MDA-MB-231
[4] = molecular target: T1, KDM6A (UTX); details: for IC50 against KDM6A (in words): cell-free; for KDM6A (UTX) Inhibition (%) 1 (μM): compound at 1 μM; for KDM6A (UTX) Inhibition (%) 10 (μM): compound at 10 μM

T1 sequence (O15550 whole entry): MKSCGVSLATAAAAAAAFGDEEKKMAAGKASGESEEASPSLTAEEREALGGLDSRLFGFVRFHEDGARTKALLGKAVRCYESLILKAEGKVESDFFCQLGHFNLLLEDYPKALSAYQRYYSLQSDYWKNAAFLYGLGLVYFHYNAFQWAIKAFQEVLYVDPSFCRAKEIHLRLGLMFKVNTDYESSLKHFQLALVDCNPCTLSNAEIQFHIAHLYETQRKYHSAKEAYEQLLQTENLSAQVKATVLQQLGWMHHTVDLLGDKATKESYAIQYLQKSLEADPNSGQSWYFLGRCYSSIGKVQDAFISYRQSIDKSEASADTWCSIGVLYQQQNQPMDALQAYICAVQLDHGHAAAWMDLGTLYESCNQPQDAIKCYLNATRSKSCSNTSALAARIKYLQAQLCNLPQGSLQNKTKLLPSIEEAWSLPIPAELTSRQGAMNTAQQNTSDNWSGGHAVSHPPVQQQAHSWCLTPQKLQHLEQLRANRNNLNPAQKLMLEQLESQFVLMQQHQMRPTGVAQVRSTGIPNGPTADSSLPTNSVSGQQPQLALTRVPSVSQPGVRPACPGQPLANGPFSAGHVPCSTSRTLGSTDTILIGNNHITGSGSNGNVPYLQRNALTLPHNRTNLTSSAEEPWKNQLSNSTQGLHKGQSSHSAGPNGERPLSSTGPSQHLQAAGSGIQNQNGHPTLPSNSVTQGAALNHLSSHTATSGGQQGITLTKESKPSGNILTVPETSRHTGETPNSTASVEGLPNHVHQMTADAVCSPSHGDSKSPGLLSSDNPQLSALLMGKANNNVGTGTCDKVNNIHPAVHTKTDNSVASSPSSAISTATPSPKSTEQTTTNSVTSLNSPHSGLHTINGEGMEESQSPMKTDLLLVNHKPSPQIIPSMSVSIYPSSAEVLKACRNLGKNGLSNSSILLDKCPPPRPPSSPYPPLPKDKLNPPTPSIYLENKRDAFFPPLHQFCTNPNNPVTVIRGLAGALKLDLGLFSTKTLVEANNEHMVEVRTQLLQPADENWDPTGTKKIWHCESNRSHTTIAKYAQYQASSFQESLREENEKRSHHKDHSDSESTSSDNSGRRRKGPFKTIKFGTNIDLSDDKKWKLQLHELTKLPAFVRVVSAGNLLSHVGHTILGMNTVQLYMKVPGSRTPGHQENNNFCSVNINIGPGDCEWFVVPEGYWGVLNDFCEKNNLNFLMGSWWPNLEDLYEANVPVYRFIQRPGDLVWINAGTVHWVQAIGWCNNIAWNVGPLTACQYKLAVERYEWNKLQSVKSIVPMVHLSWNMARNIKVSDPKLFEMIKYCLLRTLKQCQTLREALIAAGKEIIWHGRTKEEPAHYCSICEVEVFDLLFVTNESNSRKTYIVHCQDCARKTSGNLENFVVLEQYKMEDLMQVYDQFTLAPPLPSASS

Structure (SMILES): Cc1c(O)c(=O)ccn1CCn1cc(-c2ccccc2)nn1 [Compound 1a]
inhibition of heterochromatin formation (in words) [1]: weak inhibitors
inhibition at 1 µM [2]: 12%
inhibition at 10 µM [2]: 96%

Structure (SMILES): Cc1ccc(-c2cn(CCCCn3ccc(=O)c(O)c3C)nn2)cc1 [Compound 2e, 3-Hydroxy-2-methyl-1-(4-(4-(p-tolyl)-1H-1,2,3-triazol-1-yl)butyl)pyridin-4(1H)-one]
inhibition at 1 µM [2]: 13%
inhibition at 10 µM [2]: 100%

Structure (SMILES): COc1ccccc1-c1cn(CCCCCn2ccc(=O)c(O)c2C)nn1 [Compound 2h, 3-Hydroxy-1-(5-(4-(2-methoxyphenyl)-1H-1,2,3-triazol-1-yl)pentyl)-2-methylpyridin-4(1H)-one]
inhibition at 1 µM [2]: 3%
inhibition at 10 µM [2]: 99%

Structure (SMILES): COc1ccc(-c2cn(CCCCCn3ccc(=O)c(O)c3C)nn2)cc1 [Compound 2l, 3-Hydroxy-1-(5-(4-(4-methoxyphenyl)-1H-1,2,3-triazol-1-yl)pentyl)-2-methylpyridin-4(1H)-one]
inhibition at 1 µM [2]: 4%
inhibition at 10 µM [2]: 100%

Structure (SMILES): Cc1c(O)c(=O)ccn1CCCCCn1cc(-c2ccccc2F)nn1 [Compound 2m]
KDM6A (UTX) Inhibition (%) 1 (μM) [4]: 16%
KDM6A (UTX) Inhibition (%) 10 (μM) [4]: 100%
IC50 ([3]; 72 h): 18.3 µM

Structure (SMILES): Cc1c(O)c(=O)ccn1CCCCCn1cc(-c2cccc(F)c2)nn1 [Compound 2n, 1-(5-(4-(3-Fluorophenyl)-1H-1,2,3-triazol-1-yl)pentyl)-3-hydroxy-2-methylpyridin-4(1H)-one]
inhibition at 1 µM [2]: 5%
inhibition at 10 µM [2]: 100%

Structure (SMILES): Cc1c(O)c(=O)ccn1CCCCCn1cc(-c2ccc(-c3ccncc3)cc2)nn1 [Compound 2t, 3-Hydroxy-2-methyl-1-(5-(4-(4-(pyridin-4-yl)phenyl)-1H-1,2,3-triazol-1-yl)pentyl)pyridin-4(1H)-one]
concentration at which maximum inhibition of heterochromatin formation / gene repression is reached [1]: 10 µM
inhibition of heterochromatin formation (in words) [1]: significantly inhibited
inhibition at 1 µM [2]: 8%
inhibition at 10 µM [2]: 99%

Structure (SMILES): Cc1c(O)c(=O)ccn1CCCCCCn1cc(-c2ccc(-c3ccccc3)cc2)nn1 [Compound 2v, 1-(6-(4-([1,1-Biphenyl]-4-yl)-1H-1,2,3-triazol-1-yl)hexyl)-3-hydroxy-2-methylpyridin-4(1H)-one]
concentration at which maximum inhibition of heterochromatin formation / gene repression is reached [1]: 1 µM
inhibition of heterochromatin formation (in words) [1]: significantly inhibited

Structure (SMILES): COc1ccc2cc(-c3cn(CCCCCCn4ccc(=O)c(O)c4C)nn3)ccc2c1 [Compound 2w, 3-Hydroxy-1-(6-(4-(6-methoxynaphthalen-2-yl)-1H-1,2,3-triazol-1-yl)hexyl)-2-methylpyridin-4(1H)-one]
concentration at which maximum inhibition of heterochromatin formation / gene repression is reached [1]: 1 µM
inhibition of heterochromatin formation (in words) [1]: significantly inhibited

Structure (SMILES): Cc1c(O)c(=O)ccn1CCCCn1ccc(=O)c(O)c1C [Compound 3a]
KDM6A (UTX) Inhibition (%) 1 (μM) [4]: 4%
KDM6A (UTX) Inhibition (%) 10 (μM) [4]: 100%

Structure (SMILES): Cc1c(O)c(=O)ccn1CCCCCCn1ccc(=O)c(O)c1C [Compound 3c]
KDM6A (UTX) Inhibition (%) 1 (μM) [4]: 2%
KDM6A (UTX) Inhibition (%) 10 (μM) [4]: 100%

Structure (SMILES): Cc1c(O)c(=O)ccn1CCCCCCCn1ccc(=O)c(O)c1C [Compound 3d]
KDM6A (UTX) Inhibition (%) 1 (μM) [4]: 3%
KDM6A (UTX) Inhibition (%) 10 (μM) [4]: 100%

Structure (SMILES): Cc1c(O)c(=O)ccn1Cc1ccc(Cn2ccc(=O)c(O)c2C)cc1 [Compound 3f, 1,1′-(1,4-Phenylenebis(methylene))bis(3-hydroxy-2-methylpyridin-4(1H)-one)]
inhibition at 1 µM [2]: 5%
inhibition at 10 µM [2]: 100%

Structure (SMILES): Cc1c(O)c(=O)ccn1C1CCC(CC2CCC(n3ccc(=O)c(O)c3C)CC2)CC1 (stereo not drawn) [Compound 3g, 1,1′-(Methylenebis(cyclohexane-4,1-diyl))bis(3-hydroxy-2-methylpyridin-4(1H)-one)]
IC50 against KDM6A (in words) [4]: low micromolar
concentration at which maximum inhibition of heterochromatin formation / gene repression is reached [1]: 2.5 µM
inhibition of heterochromatin formation (in words) [1]: significantly inhibited
inhibition at 1 µM [2]: 9%
inhibition at 10 µM [2]: 100%

Continued, in another order:

IC50 ([3]; 72 h): 9.6 µM
Structure (SMILES): COc1ccccc1-c1cn(CCCCn2ccc(=O)c(O)c2C)nn1 [Compound 2g, 3-Hydroxy-1-(4-(4-(2-methoxyphenyl)-1H-1,2,3-triazol-1-y)butyl)-2-methylpyridin-4(1H)-one]

IC50 against KDM6A (in words) [4]: low micromolar
IC50 ([3]; Homo sapiens, MDA-MB-231, 72 h): 19.6 µM
inhibition at 1 µM [2]: 8%
inhibition at 10 µM [2]: 100%
Structure (SMILES): COc1cccc(-c2cn(CCCCCn3ccc(=O)c(O)c3C)nn2)c1 [Compound 2j, 3-Hydroxy-1-(5-(4-(3-methoxyphenyl)-1H-1,2,3-triazol-1-yl)pentyl)-2-methylpyridin-4(1H)-one]
increase in GFP expression [1]: 20%
inhibition of heterochromatin formation (in words) [1]: significantly inhibited

inhibition at 1 µM [2]: 10%
inhibition at 10 µM [2]: 100%
Structure (SMILES): Cc1c(O)c(=O)ccn1CCCCCn1cc(-c2ccc(F)cc2)nn1 [Compound 2o, 1-(5-(4-(4-Fluorophenyl)-1H-1,2,3-triazol-1-yl)pentyl)-3-hydroxy-2-methylpyridin-4(1H)-one]

inhibition at 1 µM [2]: 15%
inhibition at 10 µM [2]: 99%
Structure (SMILES): Cc1c(O)c(=O)ccn1CCCCCn1cc(-c2ccccc2C(F)(F)F)nn1 [Compound 2p, 3-Hydroxy-2-methyl-1-(5-(4-(2-(trifluoromethyl)phenyl)-1H-1,2,3-triazol-1-yl)pentyl)pyridin-4(1H)-one]

IC50 ([3]; 72 h): 12.5 µM
Structure (SMILES): Cc1c(O)c(=O)ccn1CCCCCn1cc(-c2ccc(N(C)C)cc2)nn1 [Compound 2r, 1-(5-(4-(4-(Dimethylamino)phenyl)-1H-1,2,3-triazol-1-yl)pentyl)-3-hydroxy-2-methylpyridin-4(11)-one]

inhibition at 1 µM [2]: 15%
inhibition at 10 µM [2]: 99%
Structure (SMILES): Cc1c(O)c(=O)ccn1CCCCCn1cc(-c2ccccn2)nn1 [Compound 2s, 3-Hydroxy-2-methyl-1-(5-(4-(pyridin-2-yl)-1H-1,2,3-triazol-1-yl)pentyl)pyridin-4(1H)-one]

KDM6A (UTX) Inhibition (%) 1 (μM) [4]: 1%
KDM6A (UTX) Inhibition (%) 10 (μM) [4]: 99%
Structure (SMILES): Cc1c(O)c(=O)ccn1CCCCCn1ccc(=O)c(O)c1C [Compound 3b]

IC50 ([3]; Homo sapiens, MDA-MB-231, 72 h): 1.6 µM
inhibition at 1 µM [2]: 9%
inhibition at 10 µM [2]: 100%
Structure (SMILES): CC/C(=C(\c1ccccc1)c1ccc(OCCN(C)Cc2ccc(-c3cn(CCn4ccc(=O)c(O)c4C)nn3)cc2)cc1)c1ccccc1 [Compound 36a]

Reference: patent US20250268880A1, “3-(Hydroxy)-Pyridin-4(1H)-One Compounds and Methods of Making and Using the Same” (Georgia Tech Research Corporation, priority 2018, published 2025)
